According to PMC8333425, “Discovery of a dual Ras and ARF6 inhibitor from a GPCR endocytosis screen” (Nature Communications, 2021):

Tests used:
Assay in all cases: KINOMEscan kinase binding assay
[1] = target: T1, 384 kinases from the human genome (Homo sapiens, UniProt O15264); details: kinase p38-delta (Entrez MAPK13)
T1 construct: purchased Eurofin/DiscoverX
Summary of the method: (§1)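 A panel of 384 human kinases was profiled by KINOMEscan binding in the presence of 10 µM compound. Kinase–ligand binding was given as percent of DMSO control, averaged from duplicates in a single run, with an S(10) selectivity score.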

[2] = target: T2, 384 kinases from the human genome (Homo sapiens, UniProt O43683); details: kinase BUB1 (Entrez BUB1)
T2 construct: purchased Eurofin/DiscoverX
Summary of the method: as §1

[3] = target: T3, 384 kinases from the human genome (Homo sapiens, UniProt P00533)
T3 construct: purchased Eurofin/DiscoverX
Summary of the method: as §1

[4] = target: T4, 384 kinases from the human genome (Homo sapiens, UniProt P12931)
T4 construct: purchased Eurofin/DiscoverX
Summary of the method: as §1

[5] = target: T5, 384 kinases from the human genome (Homo sapiens, UniProt P21860); details: kinase ERBB3 (Entrez ERBB3)
T5 construct: purchased Eurofin/DiscoverX
Summary of the method: as §1

[6] = target: T6, 384 kinases from the human genome (Homo sapiens, UniProt P25098); details: kinase GRK2 (Entrez ADRBK1)
T6 construct: purchased Eurofin/DiscoverX
Summary of the method: as §1

[7] = target: T7, 384 kinases from the human genome (Homo sapiens, UniProt P30291); details: kinase WEE1 (Entrez WEE1)
T7 construct: purchased Eurofin/DiscoverX
Summary of the method: as §1

[8] = target: T8, 384 kinases from the human genome (Homo sapiens, UniProt P32298); details: kinase GRK4 (Entrez GRK4)
T8 construct: purchased Eurofin/DiscoverX
Summary of the method: as §1

[9] = target: T9, 384 kinases from the human genome (Homo sapiens, UniProt P35626); details: kinase GRK3 (Entrez ADRBK2)
T9 construct: purchased Eurofin/DiscoverX
Summary of the method: as §1

[10] = target: T10, 384 kinases from the human genome (Homo sapiens, UniProt P35916); details: kinase FLT4 (Entrez FLT4)
T10 construct: purchased Eurofin/DiscoverX
Summary of the method: as §1

[11] = target: T11, 384 kinases from the human genome (Homo sapiens, UniProt P36897); details: kinase TGFBR1 (Entrez TGFBR1)
T11 construct: purchased Eurofin/DiscoverX
Summary of the method: as §1

[12] = target: T12, 384 kinases from the human genome (Homo sapiens, UniProt P41743); details: kinase PRKCI (Entrez PRKCI)
T12 construct: purchased Eurofin/DiscoverX
Summary of the method: as §1

[13] = target: T13, 384 kinases from the human genome (Homo sapiens, UniProt P43403); details: kinase ZAP70 (Entrez ZAP70)
T13 construct: purchased Eurofin/DiscoverX
Summary of the method: as §1

[14] = target: T14, 384 kinases from the human genome (Homo sapiens, UniProt Q09013); details: kinase DMPK (Entrez DMPK)
T14 construct: purchased Eurofin/DiscoverX
Summary of the method: as §1

[15] = target: T15, 384 kinases from the human genome (Homo sapiens, UniProt Q13188); details: kinase MST2 (Entrez STK3)
T15 construct: purchased Eurofin/DiscoverX
Summary of the method: as §1

[16] = target: T16, 384 kinases from the human genome (Homo sapiens, UniProt Q16566); details: kinase CAMK4 (Entrez CAMK4)
T16 construct: purchased Eurofin/DiscoverX
Summary of the method: as §1

[17] = target: T17, 384 kinases from the human genome (Homo sapiens, UniProt Q6P2M8); details: kinase CAMK1B (Entrez PNCK)
T17 construct: purchased Eurofin/DiscoverX
Summary of the method: as §1

[18] = target: T18, 384 kinases from the human genome (Homo sapiens, UniProt Q86UE8); details: kinase TLK2 (Entrez TLK2)
T18 construct: purchased Eurofin/DiscoverX
Summary of the method: as §1

[19] = target: T19, 384 kinases from the human genome (Homo sapiens, UniProt Q8N752); details: kinase CSNK1A1L (Entrez CSNK1A1L)
T19 construct: purchased Eurofin/DiscoverX
Summary of the method: as §1

[20] = target: T20, 384 kinases from the human genome (Homo sapiens, UniProt Q8TF76); details: kinase HASPIN (Entrez GSG2)
T20 construct: purchased Eurofin/DiscoverX
Summary of the method: as §1

[21] = target: T21, 384 kinases from the human genome (Homo sapiens, UniProt Q9H0K1); details: kinase SIK2 (Entrez SIK2)
T21 construct: purchased Eurofin/DiscoverX
Summary of the method: as §1

[22] = target: T22, 384 kinases from the human genome (Homo sapiens, UniProt Q9NRP7); details: kinase STK36 (Entrez STK36)
T22 construct: purchased Eurofin/DiscoverX
Summary of the method: as §1

[23] = target: T23, 384 kinases from the human genome (Homo sapiens, UniProt Q9NWZ3); details: kinase IRAK4 (Entrez IRAK4)
T23 construct: purchased Eurofin/DiscoverX
Summary of the method: as §1

[24] = target: T24, 384 kinases from the human genome (Homo sapiens, UniProt Q9NYL2); details: kinase ZAK (Entrez ZAK)
T24 construct: purchased Eurofin/DiscoverX
Summary of the method: as §1

[25] = target: T25, 384 kinases from the human genome (Homo sapiens, UniProt Q9UEE5); details: kinase DRAK1 (Entrez STK17A)
T25 construct: purchased Eurofin/DiscoverX
Summary of the method: as §1

[26] = target: T26, 384 kinases from the human genome (Homo sapiens, UniProt Q9Y6M4); details: kinase CSNK1G3 (Entrez CSNK1G3)
T26 construct: purchased Eurofin/DiscoverX
Summary of the method: as §1

T4 sequence (P12931 whole entry): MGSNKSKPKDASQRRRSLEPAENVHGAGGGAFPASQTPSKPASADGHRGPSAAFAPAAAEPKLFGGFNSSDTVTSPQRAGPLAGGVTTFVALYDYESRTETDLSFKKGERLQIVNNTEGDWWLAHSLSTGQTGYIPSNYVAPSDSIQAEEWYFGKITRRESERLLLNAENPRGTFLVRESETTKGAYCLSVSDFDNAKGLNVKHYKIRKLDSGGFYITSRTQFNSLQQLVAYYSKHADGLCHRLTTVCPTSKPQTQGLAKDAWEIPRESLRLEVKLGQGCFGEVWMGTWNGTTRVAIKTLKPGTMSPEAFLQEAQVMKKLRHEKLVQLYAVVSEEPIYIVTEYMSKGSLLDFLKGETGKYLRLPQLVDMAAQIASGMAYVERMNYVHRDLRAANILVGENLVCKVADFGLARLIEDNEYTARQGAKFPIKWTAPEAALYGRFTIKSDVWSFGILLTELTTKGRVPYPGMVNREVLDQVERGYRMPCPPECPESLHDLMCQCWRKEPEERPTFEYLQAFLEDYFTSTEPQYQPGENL
T3 sequence (P00533 25-1210): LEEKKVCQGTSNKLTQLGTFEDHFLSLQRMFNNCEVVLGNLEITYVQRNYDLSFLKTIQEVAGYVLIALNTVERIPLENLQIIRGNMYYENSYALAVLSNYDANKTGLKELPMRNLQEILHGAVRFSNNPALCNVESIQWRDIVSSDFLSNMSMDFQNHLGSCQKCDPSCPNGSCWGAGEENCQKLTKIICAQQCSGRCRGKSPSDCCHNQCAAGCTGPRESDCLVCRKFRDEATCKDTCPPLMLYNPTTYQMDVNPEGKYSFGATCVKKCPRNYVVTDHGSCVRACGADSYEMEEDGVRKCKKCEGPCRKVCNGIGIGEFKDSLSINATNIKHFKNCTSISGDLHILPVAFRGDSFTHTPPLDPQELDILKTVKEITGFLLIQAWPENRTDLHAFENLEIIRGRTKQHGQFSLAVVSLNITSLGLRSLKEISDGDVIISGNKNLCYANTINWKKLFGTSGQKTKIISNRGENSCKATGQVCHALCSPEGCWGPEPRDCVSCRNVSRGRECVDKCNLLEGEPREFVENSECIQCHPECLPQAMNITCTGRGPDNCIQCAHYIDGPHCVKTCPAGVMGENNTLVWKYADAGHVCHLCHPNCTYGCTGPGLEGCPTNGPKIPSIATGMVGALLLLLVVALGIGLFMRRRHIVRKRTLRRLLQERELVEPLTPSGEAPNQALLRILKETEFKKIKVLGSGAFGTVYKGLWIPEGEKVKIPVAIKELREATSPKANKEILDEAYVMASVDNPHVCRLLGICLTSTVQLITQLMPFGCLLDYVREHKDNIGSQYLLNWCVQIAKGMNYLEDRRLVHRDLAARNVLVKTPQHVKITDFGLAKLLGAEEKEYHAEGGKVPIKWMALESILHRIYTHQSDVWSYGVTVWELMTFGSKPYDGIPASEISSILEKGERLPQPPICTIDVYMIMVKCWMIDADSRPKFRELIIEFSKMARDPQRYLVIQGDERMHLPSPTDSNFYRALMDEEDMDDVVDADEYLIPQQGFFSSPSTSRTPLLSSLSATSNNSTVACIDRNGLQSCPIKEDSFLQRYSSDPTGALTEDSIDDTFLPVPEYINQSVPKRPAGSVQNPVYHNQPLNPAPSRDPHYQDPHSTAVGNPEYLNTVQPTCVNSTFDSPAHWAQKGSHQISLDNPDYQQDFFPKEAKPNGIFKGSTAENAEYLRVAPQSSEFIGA
T8 sequence (P32298 whole entry): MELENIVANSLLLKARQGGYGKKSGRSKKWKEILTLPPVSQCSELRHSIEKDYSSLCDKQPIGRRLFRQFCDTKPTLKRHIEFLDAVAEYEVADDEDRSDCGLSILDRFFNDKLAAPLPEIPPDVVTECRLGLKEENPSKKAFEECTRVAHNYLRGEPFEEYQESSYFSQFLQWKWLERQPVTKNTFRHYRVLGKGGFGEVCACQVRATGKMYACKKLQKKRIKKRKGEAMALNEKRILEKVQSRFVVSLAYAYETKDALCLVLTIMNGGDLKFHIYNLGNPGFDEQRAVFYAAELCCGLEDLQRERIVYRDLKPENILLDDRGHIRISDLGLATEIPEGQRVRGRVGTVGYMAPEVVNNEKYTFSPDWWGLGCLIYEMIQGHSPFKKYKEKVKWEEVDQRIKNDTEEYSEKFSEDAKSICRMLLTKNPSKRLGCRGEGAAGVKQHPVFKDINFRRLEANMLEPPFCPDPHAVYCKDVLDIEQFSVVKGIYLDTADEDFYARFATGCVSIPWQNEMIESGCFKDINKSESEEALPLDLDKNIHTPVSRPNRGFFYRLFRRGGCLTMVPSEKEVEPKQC
T25 sequence (Q9UEE5 whole entry): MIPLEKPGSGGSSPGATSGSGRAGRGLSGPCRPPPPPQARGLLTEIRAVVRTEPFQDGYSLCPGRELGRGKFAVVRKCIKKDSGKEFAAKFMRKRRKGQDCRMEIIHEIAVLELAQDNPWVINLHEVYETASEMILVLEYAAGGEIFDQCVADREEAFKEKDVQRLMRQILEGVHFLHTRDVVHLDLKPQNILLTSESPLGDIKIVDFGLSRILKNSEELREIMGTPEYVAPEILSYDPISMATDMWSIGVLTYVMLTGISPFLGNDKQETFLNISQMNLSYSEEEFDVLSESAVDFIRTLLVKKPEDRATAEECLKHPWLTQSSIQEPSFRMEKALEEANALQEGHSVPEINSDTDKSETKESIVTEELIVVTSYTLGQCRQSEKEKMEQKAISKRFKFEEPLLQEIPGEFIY
T1 sequence (O15264 whole entry): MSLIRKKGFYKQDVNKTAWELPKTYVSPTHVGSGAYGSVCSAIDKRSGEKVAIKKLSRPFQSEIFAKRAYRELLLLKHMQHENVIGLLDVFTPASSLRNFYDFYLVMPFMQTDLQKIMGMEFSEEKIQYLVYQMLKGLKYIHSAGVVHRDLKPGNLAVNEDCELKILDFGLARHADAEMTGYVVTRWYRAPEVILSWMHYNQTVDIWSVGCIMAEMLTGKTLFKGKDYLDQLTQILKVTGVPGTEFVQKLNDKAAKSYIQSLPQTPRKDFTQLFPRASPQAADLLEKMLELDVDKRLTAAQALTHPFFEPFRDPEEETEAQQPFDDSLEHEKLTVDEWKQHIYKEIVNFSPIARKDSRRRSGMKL
T24 sequence (Q9NYL2 whole entry): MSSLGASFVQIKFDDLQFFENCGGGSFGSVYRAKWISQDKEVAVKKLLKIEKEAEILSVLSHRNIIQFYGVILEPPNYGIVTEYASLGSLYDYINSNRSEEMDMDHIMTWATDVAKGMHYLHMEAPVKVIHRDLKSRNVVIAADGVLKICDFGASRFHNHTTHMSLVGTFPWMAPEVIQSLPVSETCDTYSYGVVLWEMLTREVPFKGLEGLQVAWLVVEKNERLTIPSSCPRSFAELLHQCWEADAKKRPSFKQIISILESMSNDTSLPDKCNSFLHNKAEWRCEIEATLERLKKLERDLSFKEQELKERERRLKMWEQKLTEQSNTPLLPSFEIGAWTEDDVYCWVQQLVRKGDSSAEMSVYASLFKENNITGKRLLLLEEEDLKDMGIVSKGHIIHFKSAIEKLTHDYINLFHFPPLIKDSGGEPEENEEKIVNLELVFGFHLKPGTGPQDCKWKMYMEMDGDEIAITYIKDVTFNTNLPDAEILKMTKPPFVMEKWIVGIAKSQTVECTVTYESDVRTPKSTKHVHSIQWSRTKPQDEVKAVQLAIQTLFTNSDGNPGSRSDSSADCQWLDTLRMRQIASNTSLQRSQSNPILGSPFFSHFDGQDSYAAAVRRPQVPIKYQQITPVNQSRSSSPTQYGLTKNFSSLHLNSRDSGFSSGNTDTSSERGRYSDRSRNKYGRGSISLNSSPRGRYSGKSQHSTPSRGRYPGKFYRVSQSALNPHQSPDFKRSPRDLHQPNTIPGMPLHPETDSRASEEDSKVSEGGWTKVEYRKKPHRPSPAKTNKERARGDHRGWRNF
T20 sequence (Q8TF76 whole entry): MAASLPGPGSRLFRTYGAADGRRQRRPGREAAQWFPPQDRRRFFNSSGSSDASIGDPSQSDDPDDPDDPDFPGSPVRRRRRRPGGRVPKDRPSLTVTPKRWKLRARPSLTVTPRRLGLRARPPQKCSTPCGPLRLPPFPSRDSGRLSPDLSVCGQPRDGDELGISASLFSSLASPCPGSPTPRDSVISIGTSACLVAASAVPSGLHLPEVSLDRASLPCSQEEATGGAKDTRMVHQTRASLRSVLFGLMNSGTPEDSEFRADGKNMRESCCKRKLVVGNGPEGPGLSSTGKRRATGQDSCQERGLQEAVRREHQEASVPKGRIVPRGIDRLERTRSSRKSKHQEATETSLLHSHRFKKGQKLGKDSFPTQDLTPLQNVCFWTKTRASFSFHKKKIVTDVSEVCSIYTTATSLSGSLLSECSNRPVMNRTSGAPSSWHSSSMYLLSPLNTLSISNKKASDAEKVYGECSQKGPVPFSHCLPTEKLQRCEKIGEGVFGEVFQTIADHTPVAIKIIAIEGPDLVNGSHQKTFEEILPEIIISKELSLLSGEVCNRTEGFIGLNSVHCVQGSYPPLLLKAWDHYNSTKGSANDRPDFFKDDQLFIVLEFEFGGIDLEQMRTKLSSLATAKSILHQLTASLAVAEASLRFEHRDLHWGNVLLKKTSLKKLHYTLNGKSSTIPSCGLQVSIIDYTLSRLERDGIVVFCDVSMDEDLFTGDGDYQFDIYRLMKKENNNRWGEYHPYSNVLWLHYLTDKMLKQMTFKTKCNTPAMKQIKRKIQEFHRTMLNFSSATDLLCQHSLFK
T17 sequence (Q6P2M8 whole entry): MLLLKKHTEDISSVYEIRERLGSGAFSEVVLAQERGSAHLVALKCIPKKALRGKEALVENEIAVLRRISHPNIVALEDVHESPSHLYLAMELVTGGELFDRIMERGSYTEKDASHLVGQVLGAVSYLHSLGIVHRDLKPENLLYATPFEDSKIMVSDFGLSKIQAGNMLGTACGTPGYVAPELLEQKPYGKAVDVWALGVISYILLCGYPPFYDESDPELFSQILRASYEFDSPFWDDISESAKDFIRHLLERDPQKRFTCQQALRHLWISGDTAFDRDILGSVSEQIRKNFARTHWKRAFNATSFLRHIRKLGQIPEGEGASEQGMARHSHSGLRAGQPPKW

SMILES: CC(C)C(=O)N1CCN(c2ccc(NC(=O)c3cc4ccccc4o3)cc2Cl)CC1 [Compound 21]
- Percent Control [1]: 88%
- Percent Control [2]: 99%
- binding to EGFR ([3]; 10 µM of 21): failed to bind
- Percent Control ([3]; kinase EGFR (Entrez EGFR)): 89%
- binding to Src ([4]; 10 µM of 21): failed to bind
- Percent Control ([4]; kinase SRC (Entrez SRC)): 100%
- Percent Control [5]: 83%
- Percent Control [6]: 99%
- Percent Control [7]: 98%
- Percent Control [8]: 99%
- Percent Control [9]: 100%
- Percent Control [10]: 89%
- Percent Control [11]: 79%
- Percent Control [12]: 100%
- Percent Control [13]: 98%
- Percent Control [14]: 100%
- Percent Control [15]: 95%
- Percent Control [16]: 100%
- Percent Control [17]: 77%
- Percent Control [18]: 100%
- Percent Control [19]: 98%
- Percent Control [20]: 98%
- Percent Control [21]: 77%
- Percent Control [22]: 88%
- Percent Control [23]: 76%
- Percent Control [24]: 72%
- Percent Control [25]: 93%
- Percent Control [26]: 100%
